The experiment has as its target T1, P2Y6 (P2ry6^WT BMDMs) (Mus musculus, UniProt Q9ERK9).
T1 construct: native full-length receptor, endogenous in mouse bone marrow-derived macrophages (BMDMs); no tag
Kind of experiment: Fura-2 intracellular calcium response, BMDMs, Hill fit. To be noted: agonist, native mouse BMDMs, peak F340/F380 normalized to ionomycin, pH 7.4, response absent in P2ry6^ΔMy BMDMs. The class given is cell-based. In general terms: Calcium flux is commonly read through the fluorescence of an indicator in the cells.

T1 sequence (Q9ERK9 whole entry): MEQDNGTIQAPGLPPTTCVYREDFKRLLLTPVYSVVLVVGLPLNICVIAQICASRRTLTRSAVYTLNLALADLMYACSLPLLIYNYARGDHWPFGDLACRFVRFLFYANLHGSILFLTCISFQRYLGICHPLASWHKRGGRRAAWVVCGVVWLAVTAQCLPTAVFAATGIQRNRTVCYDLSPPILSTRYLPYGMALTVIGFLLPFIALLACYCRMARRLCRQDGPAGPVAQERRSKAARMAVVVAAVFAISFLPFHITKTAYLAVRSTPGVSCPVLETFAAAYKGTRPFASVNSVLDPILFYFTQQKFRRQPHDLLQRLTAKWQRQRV

For the molecule `O=c1ccn([C@@H]2O[C@H](COP(=O)(O)OP(=O)(O)O)[C@@H](O)[C@H]2O)c(=O)[nH]1` [UDP], for the setting “n = 3”, the EC50 (in general, the concentration that produces a half-maximal response) came out at 0.042 ± 0.005 µM. On to `O=c1ccn([C@@H]2O[C@H](COP(=O)(O)OP(=O)(O)OP(=O)(O)O)[C@@H](O)[C@H]2O)c(=O)[nH]1` [UTP], for which the EC50 (n = 6, possible conversion to UDP by ectonucleotidases) was found to be 0.103 ± 0.012 µM.
